What was measured:
[1] = system: BEAS2B cells; assay: Cell viability: resazurin assay; type: cell-based, human; conditions: concentrations up to, at least, 10 μM
Procedure: BEAS2B cells were seeded in 384-well plates (100 μL; 3000/well/; BD Falcon, Catalogue No 353962) in RPMI-LHC8 (RPMI-1640 and LHC8 media combined in equal proportions) one day before experimentation. For cell-free control wells, RPMI-LHC8 (100 μL) was added. Test compounds (0.5 μL of a DMSO solution) were added to give a final DMSO concentration of 0.5% using an Integra VIAFLO 96 (Integra, Zizers, Switzerland). BEAS2B cells were incubated with each test compound for 1 day (37° C./5% CO2 in RPMI-LHC8). After addition of resazurin stock solution (5 μL, 0.04%) the plates were incubated for a further 4 hr (37° C./5% CO2). The fluorescence of each well at 545 nm (excitation) and 590 nm (emission) was determined using a multi-scanner (Clariostar: BMG Labtech). The percentage loss of cell viability was calculated for each well relative to vehicle (0.5% DMSO) treatment. Where appropriate, a CC50 value was calculated from the concentration-response curve generated from the concentration-response curve for each test compound.

[2] = system: Aspergillus fumigatus (ATCC 13073); assay: Extended prophylactic dosing: CFU in lung and GM in BALF and serum; type: in vivo, mice
Procedure: Aspergillus fumigatus (ATCC 13073 [strain: NIH 5233], American Type Culture Collection, Manassas, Va., USA) was grown on Malt agar (Nissui Pharmaceutical, Tokyo, Japan) plates for 6-7 days at RT (24±1° C.). Spores were aseptically dislodged from the agar plates and suspended in sterile distilled water with 0.05% Tween 80 and 0.1% agar. On the day of infection, spore counts were assessed by haemocytometer and the inoculum was adjusted to obtain a concentration of 1.67×10^8 spores mL^−1 of physiological saline.
On day 0, animals were infected with the spore suspension (35 μL intra-nasally).
Test compounds were administered intra-nasally (35 μL of a suspension of 0.08-2.00 mg/mL in physiological saline) once daily, 30 min before infection on day 0 and then on days 1, 2 and 3 (representing prophylactic treatment) or on days 1, 2 and 3 only (representing therapeutic treatment). For extended prophylactic treatment, test compounds (35 μL of a suspension of 0.0032 or 0.016 mg/mL in physiological saline) were administered intra-nasally once daily for seven days; then 30 min before infection on day 0, and thereafter, either on days 1, 2 and 3 after infection, or on day 0 only. The effects of these treatment paradigms were compared with those obtained when treatment was restricted to one day and 30 min before inoculation and then on days 1, 2 and 3 post infection; or reduced still further to one day and 30 min before infection only.
Six hours after the last dose, animals were anesthetised, the trachea was cannulated and BALF was collected. The total number of alveolar cells was determined using a haemocytometer, and the numbers of alveolar macrophages and neutrophils were determined by FACS analysis (EPICS® ALTRA II, Beckman Coulter, Inc., Fullerton, Calif., USA) using anti-mouse MOMA2-FITC (macrophage) or anti-mouse 7/4 (neutrophil), respectively, as previously reported (Kimura et al., 2013). The levels of IFN-γ and IL-17 in BALF, and IL-6 and TNFα in serum were determined using Quantikine® mouse IFN-γ, IL-17, IL-6 or TNF-α ELISA kit (R&D systems, Inc., Minneapolis, Minn., USA) respectively. MDA, an oxidative stress marker, was assayed using OxiSelect® TBARS Assay Kits (MDA Quantitation; Cell Biolabs Inc, San Diego, Calif., USA). Aspergillus GM in serum was determination using Platelia GM-EIA kits (Bio-Rad Laboratories, Redmond, Wash., USA). Cut-off index was calculated by the formula: Cut-off index=OD in sample/OD in cut-off control provided in kit. For tissue fungal load assays, 100 mg of lung tissue was removed aseptically and homogenized in 0.2 mL of 0.1% agar in sterile distilled water. Serially diluted lung homogenates were plated on Malt agar plates (50 μL/plate), and incubated at 24±1° C. for 72 to 96 h. The colonies of A. fumigatus on each plate was counted and the fungal titre presented as CFU per gram of lung tissue.

[3] = days dosed −1, 0, 16 μg/mL intra-nasally
[4] = days dosed −1 to +3, 3.2 μg/mL intra-nasally
[5] = days dosed −1 to +3, 16 μg/mL intra-nasally
[6] = days dosed −7 to 0, 16 μg/mL intra-nasally
[7] = days dosed −7 to +3, 3.2 μg/mL intra-nasally
[8] = days dosed −7 to +3, 16 μg/mL intra-nasally

Cc1cc(N2CCN(c3ccc(C(=O)Nc4ccc(F)cc4)cc3)CC2)ccc1OC[C@@H]1CO[C@@](Cn2cncn2)(c2ccc(F)cc2F)C1 [Compound (I), 4-(4-(4-(((3R,5R)-5-((1H-1,2,4-triazol-1-yl)methyl)-5-(2,4-difluorophenyl)tetrahydrofuran-3-yl)methoxy)-3-methylphenyl)piperazin-1-yl)-N-(4-fluorophenyl)benzamide]
effect on the viability of BEAS2B bronchial epithelial cells [1]: no or little effect | CFU in lung [2, 3]: 13.1 ± 2.6 /mg of lung | CFU in lung, % inhibition [2, 3]: 62% | GM in BALF [2, 3]: 4.5 ± 0.50 COI | GM in BALF, % inhibition [2, 3]: 12% | GM in serum [2, 3]: 4.0 ± 0.88 COI | GM in serum, % inhibition [2, 3]: 7% | CFU in lung [2, 4]: 9.5 ± 3.3 /mg of lung | CFU in lung, % inhibition [2, 4]: 73% | GM in BALF [2, 4]: 2.8 ± 0.71 COI | GM in BALF, % inhibition [2, 4]: 45% | GM in serum [2, 4]: 2.2 ± 0.69 COI | GM in serum, % inhibition [2, 4]: 49% | CFU in lung [2, 5]: 6.1 ± 2.8 /mg of lung | CFU in lung, % inhibition [2, 5]: 82% | GM in BALF [2, 5]: 2.2 ± 0.61 COI | GM in BALF, % inhibition [2, 5]: 57% | GM in serum [2, 5]: 1.6 ± 0.41 COI | GM in serum, % inhibition [2, 5]: 63% | CFU in lung [2, 6]: 6.7 ± 1.7 /mg of lung | CFU in lung, % inhibition [2, 6]: 81% | GM in BALF [2, 6]: 2.3 ± 0.52 COI | GM in BALF, % inhibition [2, 6]: 55% | GM in serum [2, 6]: 1.7 ± 0.59 COI | GM in serum, % inhibition [2, 6]: 60% | CFU in lung [2, 7]: 8.3 ± 2.0 /mg of lung | CFU in lung, % inhibition [2, 7]: 76% | GM in BALF [2, 7]: 2.6 ± 0.36 COI | GM in BALF, % inhibition [2, 7]: 49% | GM in serum [2, 7]: 1.8 ± 0.43 COI | GM in serum, % inhibition [2, 7]: 58% | CFU in lung [2, 8]: 5.0 ± 2.3 /mg of lung | CFU in lung, % inhibition [2, 8]: 86% | GM in BALF [2, 8]: 1.7 ± 0.39 COI | GM in BALF, % inhibition [2, 8]: 67% | GM in serum [2, 8]: 1.4 ± 0.20 COI | GM in serum, % inhibition [2, 8]: 67%

Reference: patent publication US20210238169A1, “PROCESS FOR PREPARING A COMPOUND OF FORMULA (XIII)” (PULMOCIDE LIMITED, priority 2014, published 2021)
